Laboratory results taken from patent publication US20230183303A1, “Therapeutic Potential of Peptides from the "Netrin-Like" Domain of the FRZB Protein” (Université de Lorraine, priority 2020, published 2023).

How the values were obtained:
[1] = test system: ATDC5 micromasses; test: qRT-PCR relative expression of genes of interest in ATDC5 micromass culture (chondrogenesis); format: cell-based, mouse
Experimental: Mouse chondrogenic ATDC5 cells (cartilage-specific chondrogenic strain) were cultured until confluent in maintenance medium containing 1:1 Dulbecco's modified Eagle's medium (DMEM): Ham's F-12 mix (Gibco) supplemented with 1% antibiotic (AB, Penicillin-Streptomycin, Gibco), 5% fetal bovine serum (FBS) (Gibco) and enriched with […] human transferrin (Sigma) and 30 nM sodium selenite (Sigma). Cells were trypsinized, washed and resuspended at 2.10^7 cells/mL in a chondrogenic medium made of maintenance medium enriched by 1× of ITS premix (resulting in 10 μg/mL insulin, 10 μg/mL human transferrin and 30 nM sodium selenite) (Life technologies). One droplet of cell suspension (10 μL) was placed at the center of each well of a 24-well plate. Cells were allowed to adhere for 2 h at 37° C., followed by addition of 500 μL chondrogenic medium supplemented. […] After 14 days, induction of hypertrophic differentiation and mineralization was induced by the mineralization medium made of α-MEM medium (Gibco) containing 1% AB, 5% FBS, 5 μg/ml human transferrin, 1× of ITS premix, 50 μg/ml ascorbic acid-2-phosphate (AA) (Sigma) and 10 mM β-glycerophosphate (BGP) (Sigma). […] Micromasses were collected at time points 1, 7, 14 21 and 28 days. Each time point was processed in three technical replicates. The medium was changed every other day. […] The genes of interest were articular chondrocyte markers (aggrecan, type 2 collagen (col2a1)), YAP/TAZ target genes (ctgf, ankrd) and pro-catabolic enzymes involved in the pathophysiology of OA (mmp3, mmp13).
(§1) Total RNA was isolated using the Nucleospin RNA II kit (Macherey-Nagel) and reverse-transcribed using the MMLV reverse transcriptase (Thermo Fisher Scientific) following the manufacturers' instructions. The iTaq SYBR green qPCR master mix (BioRad) was used to assess the mRNA expression of target genes of interest. Primer sequences can be provided upon request. The following PCR conditions were used: 1 minute at 95° C., 40 cycles of 15 sec of denaturation at 95° C., followed by 1 minute of annealing-elongation at 60° C. Melting curve analysis was performed to determine the amplification of the specific product. Results were expressed using the comparative threshold method and were normalized to housekeeping gene PPIA (Peptidylprolyl Isomerase A) mRNA level for ATDC5 cells and MACs, or normalized to housekeeping gene S29 (ribosomal protein S29) mRNA level for MC3T3-E1 cells. The Via7 real-time PCR system (Thermo Fisher Scientific) was used for qRT-PCR measurements.
(§2) ATDC5 cells were cultured as micromasses and differentiated during 14 days using ITS as mentioned previously. […] RNA was isolated and qPCR were performed for different target genes, i.e. type II collagen and aggrecan (articular chondrocyte extracellular matrix), CTGF (YAP/TAZ target genes, indicators of the pathway activity) and MMP3 (cartilage degrading enzyme increased during osteoarthritis) (FIG. 15). Alcian blue staining was performed on the micromasses cultures, and biochemical quantitation was performed as previously described (FIG. 16).
as §2, with “gene, indicator” for “genes, indicators”, “17).” for “15).”, “18).” for “16).”

[2] = test system: Wnt/β-catenin pathway; test: Western blot of Wnt/β-catenin pathway activation in ATDC5 micromasses; format: cell-based, mouse; conditions: PEP16 at 100 and 300 ng/mL; day 1, 7, 14, 21; during chondrogenesis
Experimental: (§3) Mouse chondrogenic ATDC5 cells (cartilage-specific chondrogenic strain) were cultured until confluent in maintenance medium containing 1:1 Dulbecco's modified Eagle's medium (DMEM): Ham's F-12 mix (Gibco) supplemented with 1% antibiotic (AB, Penicillin-Streptomycin, Gibco), 5% fetal bovine serum (FBS) (Gibco) and enriched with […] human transferrin (Sigma) and 30 nM sodium selenite (Sigma). Cells were trypsinized, washed and resuspended at 2.10^7 cells/mL in a chondrogenic medium made of maintenance medium enriched by 1× of ITS premix (resulting in 10 μg/mL insulin, 10 μg/mL human transferrin and 30 nM sodium selenite) (Life technologies). One droplet of cell suspension (10 μL) was placed at the center of each well of a 24-well plate. Cells were allowed to adhere for 2 h at 37° C., followed by addition of 500 μL chondrogenic medium supplemented. […] After 14 days, induction of hypertrophic differentiation and mineralization was induced by the mineralization medium made of α-MEM medium (Gibco) containing 1% AB, 5% FBS, 5 μg/ml human transferrin, 1× of ITS premix, 50 μg/ml ascorbic acid-2-phosphate (AA) (Sigma) and 10 mM β-glycerophosphate (BGP) (Sigma). […] Micromasses were collected at time points 1, 7, 14 21 and 28 days. Each time point was processed in three technical replicates. The medium was changed every other day. […]

[3] = test system: CamKII pathway; test: Western blot of CamKII pathway activation in ATDC5 micromasses; format: cell-based, mouse; conditions: PEP16 at 100 and 300 ng/mL; pre-mineralization phase of chondrogenesis (D14)
Experimental: as §3

[4] = test system: 7×TCF/LEF response elements (Super 8×TOPFlash reporter); test: Promoter activation assay, Super 8×TOPFlash luciferase reporter in ATDC5 cells stimulated with Wnt3a; format: cell-based, mouse; conditions: peptide at 300 ng/ml; 10 or 100 ng/mL recombinant Wnt3a; 24 h
Experimental: (§5) Results were normalized by-cotransfecting each of the above plasmid with the tyrosine kinase-renilla luciferase plasmid (Promega). Transfections were carried out using the Dharmafect kb transfection reagent (Fisher Scientific). Briefly, reporter plasmids and transfection reagent were diluted in serum-free medium, and then the diluted Dharmafect kb was added to the plasmids for an incubation time of 10 minutes at room temperature. During that time, cells were rinsed with PBS and were placed in fresh maintenance medium. When incubation was over, the mixture of transfection reagent-plasmids was dispensed in each well. Stimulations (with Wnt3a and/or PEP16 and/or PEP16bis) were carried out the next day.

[5] = test system: MC3T3-E1 cells; test: qRT-PCR relative expression of genes of interest in MC3T3-E1 cells (osteogenic differentiation); format: cell-based, mouse
Text: (§4) Each time point was processed in three technical replicates. The medium was changed every two days.
as §1
Briefly, MC3T3-E1 cells were differentiated during 14 days as mentioned previously. […] In the same experiment, we also used MC3T3-E1 cells stably overexpressing the NTN domain. Treated cells and NTN overexpressing cells were compared to control cells (CTL).
RNA was isolated and qPCR was performed for ANKRD (YAP/TAZ target gene, indicator of the pathway activity) (FIG. 21).

[6] = test system: Wnt/β-catenin pathway; conditions: PEP16 at 300 or 1000 ng/mL; day 7, 14, 21; during osteogenesis
Experimental: Cells were maintained in a humidified atmosphere of 5% CO2 at 37° C.

[7] = test system: MC3T3-E1 cells; test: Quantification of mineralization (Alizarin Red) in MC3T3-E1 cells; format: cell-based, mouse; conditions: PEP16 at 100 or 300 ng/mL; day 21; absorbance 405 nm
Experimental: as §4
Cells were washed with PBS and fixed with 95% ice-cold ethanol for 30 min at 4° C. for staining. After washing with distilled water, cells were stained with Alizarin Red staining (1% Alizarin Red S (Sigma)), washed three times with distilled water to remove unbound staining and air-dried. Quantification of the staining was performed by dissolving the mineral content in 800 μl of 10% acetic acid for 30 minutes. Then, the wells were scraped, the content of each well was harvested in a separate tube and vortexed for 30 seconds. Each tube was heated at 85° C. for 10 minutes, then put on ice for 5 minutes. Finally, tubes were centriguated at 13000 rpm for 15 minutes, the liquid phase was harvested and mixed with 100 μl of 10% ammonium hydroxide. Absorbance was measured at 405 nm with a spectrophotometer (Varioskan Flash, Thermo Fisher Scientific).
The mineralization level was evaluated by a biochemical assay as previously described after 21 days of differentiation culture. Results are representative of 3 experiments.

[8] = test system: 8×YAP response elements (8×GTIIC reporter); conditions: PEP16 at 30 ng/ml; 24 h
Experimental: as §5

[9] = 300 ng/ml, differentiated 14 days with ITS, D14 vs CTL
[10] = PEP16 at 30, 100, 300 ng/mL, day 1, 7, 14, 21, 28, vs non-treated control, normalized with ppia
[11] = PEP16 at 100 or 300 ng/mL, day 7, 14, 21, normalized with S29

## DRLGKKVKRWDMKLRH (PEP16)
[1]; [9]
  MMP3 expression: significant decrease
  YAP/TAZ target genes (CTGF) expression: significant decrease
  articular chondrocyte extracellular matrix genes (type II collagen and aggrecan) expression: significant increase
[1]; [10]
  relative expression level of aggrecan: significantly enhanced the induction of the expression
  relative expression level of col2a1 (type 2 collagen): significantly enhanced the induction of the expression
  relative expression level of ctgf (Hippo/YAP/TAZ target gene): efficiently reduced the expression
  relative expression level of mmp3: efficiently reduced the expression
  relative expression level of mmp13: efficiently reduced the expression
[2]
  Wnt/β-catenin pathway activation (active protein form over total protein form): reduced in the activation of the Wnt/β-catenin pathway
[3]
  CamKII pathway activation (P-CamKII over total): increased the activation of the CamKII pathway
[4]
  activity of the canonical Wnt pathway in the Super TOPFlash luciferase reporter system (Firefly/renilla ratio): significantly reduce the activity
[5]; PEP16 at 300 ng/ml or cells stably overexpressing the NTN domain, D1 and D14, vs control cells
  expression of ANKRD (YAP/TAZ target gene): managed to do so
[5]; [11]
  relative expression level of osteocalcin: favoured the induction of the expression
  relative expression level of osterix: favoured the induction of the expression
[6]
  Wnt/β-catenin pathway activation: reduced in the activation
[7]
  mineralization quantification (mineral content in the extracellular matrix): significantly increased the accumulation of mineral content
[8]
  activity of the Hippo/YAP/TAZ pathway in a luciferase-type reporter system (Firefly/renilla ratio): significantly reduced the activity
